Paper PMC12649225, “Machine Learning-Identified Potent Antimicrobial Peptides Against Multidrug-Resistant Bacteria and Skin Infections” (Antibiotics, 2025)
Read-outs that look alike come from different tables or passages of the source. Residues, ends and D or L forms follow the SMILES beside them.

Key:
[1] = test system: A. baumannii RUH875
Protocol: (§1) Bacteria incubated in PBS alone served as no-treatment controls. At five time points (1, 2, 5, 30, and 120 min), duplicate 50 µL samples were taken and immediately mixed with 50 µL of 0.05% (v/v) sodium polyanethol sulfonate (SPS; Sigma-Aldrich) in PBS to neutralize residual peptide activity. The number of viable bacteria was quantified by plating 10 µL aliquots of serial 10-fold dilutions onto sheep blood agar plates. Colonies were counted after 24 h of incubation at 37 °C.

[2] = test system: S. aureus JAR060131
Protocol: as §1

[3] = test system: A. baumannii RUH875; test: SYTOX Green membrane permeabilization assay; type: cell-based, Acinetobacter baumannii; conditions: RPMI, 1 μM SYTOX Green; for SYTOX fluorescence intensity, A. baumannii: 1- and 2-fold the LC99.9_2h concentrations, over 90 min; for Concentrations inducing membrane permeabilization / SYTOX uptake: 90 min, 37 °C
Protocol: Control samples were exposed to RPMI only. As a positive control, heat-killed bacteria were incubated at 95 °C for 10 min to induce maximum membrane permeabilization. Fluorescence (excitation: 485 nm, emission: 520 nm) was monitored every minute for 90 min at 37 °C using a […] plate reader (Ortenberg, Germany), with peptides and positive controls added after the third cycle. Background fluorescence (SYTOX Green alone) was subtracted from all values. All assays were performed in triplicate and repeated twice independently.

[4] = test system: A. baumannii RUH875 biofilm; test: Biofilm killing; type: cell-based, Acinetobacter baumannii; conditions: for Concentration killing ≥3 log CFU of A. baumannii biofilm within 2 h / Concentration giving complete eradication of A. baumannii biofilm, 24 h treatment: 24 h biofilm; for Concentration killing ≥3 log CFU of A. baumannii biofilm within 2 h: 2 h treatment in PBS, 1.88-120 μM, vs untreated biofilm; for Concentration giving complete eradication of A. baumannii biofilm, 24 h treatment: 24 h treatment in PBS; for A. baumannii biofilm killing, 24 h treatment (in words): up to 120 µM
Protocol: Mid-logarithmic phase cultures of A. baumannii RUH875 or S. aureus JAR060131 were diluted to 1 × 10^8 CFU/mL in RPMI supplemented with 1% glucose. A total of 100 μL of each suspension was added to flat-bottom polystyrene 96-well microplates (Costar) and incubated under static conditions at 37 °C in a humidified atmosphere for 24 h to allow biofilm formation. After 24 h, planktonic bacteria were removed, and wells were carefully washed with 100 μL PBS [60]. […] Control samples were exposed to 100 μL of PBS only.
Biofilms were treated at 37 °C for either 2 or 24 h. […] Plates were sealed and sonicated for 5 min (Elmasonic, Singen, Germany; 45 kHz) at room temperature to dislodge adherent bacteria. […] Quantitative cultures were performed by plating serial 10-fold dilutions on sheep blood agar, and results were expressed as log10 CFU per well. The lower limit of detection was three CFU. Each condition was tested in six replicates.

[5] = test system: S. aureus JAR060131; test: 3D human skin equivalent (HSE) infection model; type: cell-based, Staphylococcus aureus; conditions: for Concentration giving significant reductions in adherent S. aureus in HSE / Concentration eradicating adherent S. aureus in HSE: adherent fraction; for Concentration giving significant reductions in adherent S. aureus in HSE: p < 0.001
Protocol: Human keratinocytes (Ker-CT cell line; ATCC CRL-4048; RRID: CVCL_S877; ATCC, Manassas, VA, USA (October 2017)) were used to generate human skin equivalents (HSEs) following the method described by Gent et al.. Briefly, HSEs were cultured for 12 days, after which the culture medium was replaced with antibiotic-free medium, and cells were grown for an additional two days before infection (Figure S2). On the day of infection, HSEs were inoculated with 300 µL of S. aureus JAR060131 suspension (3 × 10^5 CFU) and incubated for 1 h at 37 °C with 5% CO2. Following incubation, the bacterial suspension was removed, and HSEs were washed once with 500 µL PBS. HSEs were then treated for 4 h with PBS (control), GDST-038, GDST-045, their RI variants, or the reference peptide SAAP-148 at concentrations of 3.75, 15, and 60 μM, in triplicate. Subsequently, supernatants containing planktonic (non-adherent) bacteria were collected and kept on ice. Peptide activity was neutralized by adding SPS (final concentration: 0.025% (v/v)). Adherent bacteria within HSEs were quantified by homogenizing the tissues in 0.5 mL PBS containing 0.025% (v/v) SPS, using five zirconia beads (Ø 2 mm; BioSpec Products, Bartlesville, OK, USA) in a MagNA Lyser System (Roche) for three cycles of 30 sec at 7000 rpm, with 30 sec cooling intervals on ice. Both supernatants and homogenized fractions were serially diluted, plated on blood agar, and incubated overnight at 37 °C to determine CFU counts.

[6] = test system: A. baumannii RUH875; test: microbe, parasite or virus in culture; type: cell-based, Acinetobacter baumannii; conditions: RPMI, 48 h
Protocol: (§2) The potential for resistance development to GDST-038, GDST-045, and their RI variants was assessed as described by Habets and Brockhurst. Resistance development to the antibiotics rifampicin and ciprofloxacin (both from Sigma-Aldrich) was evaluated for comparison. Briefly, 10 μL of a mid-logarithmic phase culture of A. baumannii RUH875 or S. aureus JAR060131 was added to 90 μL of peptide (final concentrations: 0.23 to 120 μM) or antibiotic (final concentrations: 0.03 to 256 μg/mL) solution in RPMI, in 96-well polypropylene round-bottom plates (Costar). All incubations were performed in quadruplicate. Plates were sealed with breathable seals (Greiner) and incubated at 37 °C with shaking at 120 rpm in a humidified environment for 18 h (S. aureus) or 48 h (A. baumannii).
(§3) The minimum inhibitory concentration (MIC), defined as the lowest concentration that inhibited visible bacterial growth, was then determined. Subsequently, 2 μL from the 0.5-fold MIC condition was transferred to fresh medium containing a concentration series ranging from 0.5- to 8-fold the new MIC. This procedure was repeated over 22 consecutive passages to monitor resistance development.

[7] = test system: S. aureus JAR060131; test: microbe, parasite or virus in culture; type: cell-based, Staphylococcus aureus; conditions: RPMI, 18 h
Protocol: as §2, §3

[8] = 4 h peptide exposure, tested 3.75, 15, 60 μM
[9] = at all tested concentrations (3.75 µM, 15 µM, and 60 µM), 4 h

Row | Compound | Time to complete killing of A. baumannii ([1]; 3.75 μM) [min] | Time to complete killing of S. aureus ([2]; 3.75 μM) [min] | SYTOX fluorescence intensity, A. baumannii [3] | Concentration killing ≥3 log CFU of A. baumannii biofilm within 2 h [4] [µM] | Concentration giving complete eradication of A. baumannii biofilm, 24 h treatment [4] [µM] | Concentration giving significant reductions in adherent S. aureus in HSE ([5]; 4 h) [µM] | Effect on non-adherent S. aureus in HSE ([5]; at 15 µM and 60 µM, 4 h) | Time to complete killing of S. aureus ([2]; 1.88 μM) [min] | Concentrations inducing membrane permeabilization / SYTOX uptake [3] [µM] | A. baumannii biofilm killing, 24 h treatment (in words) ([4]; 24 h treatment) | Concentration eradicating adherent S. aureus in HSE [5, 8] [µM] | Effect on non-adherent S. aureus in HSE [5, 9] | further results
1 | CC[C@@H](C)[C@@H](NC(=O)[C@@H](C)NC(=O)[C@@H](CCCCN)NC(=O)[C@@H](CCCCN)NC(=O)[C@@H](Cc1c[nH]c2ccccc12)NC(=O)[C@@H](Cc1c[nH]c2ccccc12)NC(=O)[C@@H](CCCNC(=N)N)NC(=O)[C@@H](CC(C)C)NC(=O)[C@@H](CC(C)C)NC(C)=O)C(=O)N[C@H](CCCCN)C(=O)N[C@@H](C(=O)N[C@H](Cc1c[nH]c2ccccc12)C(=O)N[C@H](CCCNC(=N)N)C(=O)N[C@H](CCCCN)C(N)=O)C(C)C [GDST-038-RI] (HELM PEPTIDE1{[ac].[dL].[dL].[dR].[dW].[dW].[dK].[dK].[dA].[dI].[dK].[dV].[dW].[dR].[dK].[am]}$$$$V2.0; N-terminus and C-terminus assumed) | 120 | ≤ 2 | fluorescence levels similar to heat-killed controls | 60 | ≥ 60 | 60 | significant bacterial reductions |  |  |  |  |  | 
2 | Ac-KRWVKIAKKWWRLL-NH2 [GDST-038] |  |  | fluorescence levels similar to heat-killed controls | 120 |  |  |  | ≤ 5 | 0.47 | did not cause significant biofilm CFU reduction | 15 | completely eradicated | Time to complete killing of A. baumannii ([1]; 1.88 μM): ≤ 5 min; Killing of A. baumannii within 5 min ([1]; 1.88 μM, PBS, 5 min): > 90%; Killing of S. aureus within 5 min ([2]; 1.88 μM, PBS, 5 min): > 90%; MIC A. baumannii, stable over 22 passages [6]: 0.47 µM; MIC S. aureus at the 22nd passage [7]: 1.88 µM; MIC S. aureus at the 1st passage ([7]; median of four replicates): 0.94 µM
3 | Ac-LKRVWKRVFKLLKRYWRQLKKPVR-NH2 (N-terminus and C-terminus assumed) [SAAP-148, reference compound] |  |  |  | ≥ 15 |  |  |  |  | 0.47 to 3.75 | complete eradication | 60 |  | CFU reduction of non-adherent S. aureus in HSE ([5]; 15 µM, 4 h, non-adherent fraction): 3 log CFU; Concentration reducing non-adherent S. aureus to below the detection limit in HSE ([5]; non-adherent fraction, 4 h peptide exposure, tested 3.75, 15, 60 μM): 60 µM
4 | Ac-KRWVKILKKVWRFL-NH2 [GDST-045] |  |  | fluorescence levels similar to heat-killed controls | 60 |  |  |  | ≤ 2 |  |  | 15 | completely eradicated | MIC A. baumannii at passage 16 (peak) [6]: 7.50 µM; MIC A. baumannii at the 1st passage ([6]; median of four replicates): 0.94 µM; MIC A. baumannii at the 22nd passage ([6]; serial passage at sub-inhibitory concentrations): 0.47 µM; MIC S. aureus, constant throughout all passages ([7]; 22 passages): 0.47 µM; Reduction in A. baumannii biofilm CFU, 24 h treatment ([4]; at ≥60 µM, 24 h treatment): 3.5 log
5 | CC[C@@H](C)[C@@H](NC(=O)[C@@H](CC(C)C)NC(=O)[C@@H](CCCCN)NC(=O)[C@@H](CCCCN)NC(=O)[C@H](NC(=O)[C@@H](Cc1c[nH]c2ccccc12)NC(=O)[C@@H](CCCNC(=N)N)NC(=O)[C@@H](Cc1ccccc1)NC(=O)[C@@H](CC(C)C)NC(C)=O)C(C)C)C(=O)N[C@H](CCCCN)C(=O)N[C@@H](C(=O)N[C@H](Cc1c[nH]c2ccccc12)C(=O)N[C@H](CCCNC(=N)N)C(=O)N[C@H](CCCCN)C(N)=O)C(C)C [GDST-045-RI] (HELM PEPTIDE1{[ac].[dL].[dF].[dR].[dW].[dV].[dK].[dK].[dL].[dI].[dK].[dV].[dW].[dR].[dK].[am]}$$$$V2.0; N-terminus and C-terminus assumed) | ≤ 120 | ≤ 30 | fluorescence levels similar to heat-killed controls | ≥ 30 | 120 | 15 | significant bacterial reductions |  |  |  |  |  | 
